# Experiments:
# [1] = system: Helicobacter pylori NCTC11916; details: standard strain NCTC11916; data from Table 6 of JP-A No. 7-69888; cited from earlier work
# [2] = system: Helicobacter pylori NCTC11637; details: standard strain NCTC11637; data from Table 6 of JP-A No. 7-69888; cited from earlier work
# H. pylori, ATCC 43504 = experiment: Antibacterial power test, Columbia agar, MIC; type: cell-based, Helicobacter pylori; details: Helicobacter pylori, ATCC43504, 72 h, 37° C., pH 7.0, 3 days, read on 4th day, read-out: MIC, in vitro anti-Helicobacter pylori activity
# Procedure: An in vitro test was performed in a Columbia agar medium using a standard strain of H. pylori, ATCC 43504. […] Each of the test objects was dissolved in a 1% DMSO solution. Furthermore, as antibiotic control drugs, ampicillin from the penicillin family (control drug 1), gentamycin from the aminoglycoside family (control drug 2), tetracycline from the tetracycline family (control drug 3), and ofloxacin from the new quinolone family (control drug 4) were used.
# [3] = system: H. pylori clinical isolate PT#1045483; experiment: In vitro MIC test in Columbia agar, clinical isolate; type: cell-based; details: Helicobacter pylori, 72 h, 37° C., pH 7.0, 3 days
# Procedure: (§1) An in vitro test was performed in a Columbia agar medium using standard strains of H. pylori, NCTC 11637 and 11916, clinical isolates PT#1045482, PT#1045483 and PT#1045484, and ofloxacin- and roxithromycin-resistant, clinical isolates TY2, 4 and 5. Each of the test objects was dissolved in a 1% DMSO solution. Furthermore, as antibiotic control drugs, roxithromycin from the macrolide family and ofloxacin from the new quinolone family were used. The strains were cultured at 37° C. and pH 7.0 for 3 days, and on the 4th day, the minimum inhibitory concentrations (MIC, μg/ml) were determined.
# [4] = system: H. pylori clinical isolate PT#1045482; experiment: as above; type: cell-based; details: Helicobacter pylori, 72 h, 37° C., pH 7.0, 3 days
# Procedure: as §1
# [5] = system: H. pylori clinical isolate PT#1045484; experiment: as above; type: cell-based; details: Helicobacter pylori, 72 h, 37° C., pH 7.0, 3 days
# Procedure: as §1
# [6] = system: H. pylori ofloxacin- and roxithromycin-resistant clinical isolate TY5; experiment: In vitro MIC test in Columbia agar, resistant clinical isolate; type: cell-based; details: Helicobacter pylori, 72 h; resistant strain TY5; 37° C., pH 7.0, 3 days
# Procedure: as §1
# [7] = system: H. pylori ofloxacin- and roxithromycin-resistant clinical isolate TY4; experiment: as above; type: cell-based; details: Helicobacter pylori, 72 h; resistant strain TY4; 37° C., pH 7.0, 3 days
# Procedure: as §1
# [8] = system: H. pylori ofloxacin- and roxithromycin-resistant clinical isolate TY2; experiment: as above; type: cell-based; details: Helicobacter pylori, 72 h; resistant strain TY2; 37° C., pH 7.0, 3 days
# Procedure: as §1
# H. pylori NCTC 11916 = experiment: In vitro MIC test in Columbia agar, standard strain; type: cell-based, Helicobacter pylori; details: Helicobacter pylori, NCTC11916, 72 h; standard strain NCTC 11916; 37° C., pH 7.0, 3 days
# Procedure: as §1
# H. pylori NCTC 11637 = experiment: as above; type: cell-based, Helicobacter pylori; details: Helicobacter pylori, NCTC11637, 72 h; standard strain NCTC 11637; 37° C., pH 7.0, 3 days
# Procedure: as §1
# [9] = system: Staphylococcus aureus, MRSA (ATCC 33591); experiment: In vitro antibacterial test against various bacteria, MIC; type: cell-based; details: 37° C., 20 to 48 hours, read-out: MIC
# Procedure: (§2) An in vitro antibacterial test for the compounds of Examples 1 to 6 against various bacteria was performed. As gram-negative bacteria, Escherichia coli (ATCC 10536, ATCC 25922), Klebsiella pneumonia (ATCC 10031), Proteus vulgaris (ATCC 13315), Pseudomonas aeruginosa (ATCC 9027), Salmonella typhimurium (ATCC 13311), and as gram-positive bacteria, Staphylococcus aureus, MRSA (ATCC 33591), Staphylococcus epidermidis (ATCC 12228), Streptococcus pneumonia (ATCC 6301), Mycobacterium ranae (ATCC 110) and Enterococcus faecalis (VRE, ATCC 51575) were used. The various bacteria were cultured at 37° C. for 20 to 48 hours by conventional methods, and the minimum inhibitory concentrations (MIC, μg/ml) were determined. Each of the test objects were dissolved in a 1% DMSO solution. Furthermore, as an antibiotic control drug, gentamycin (GEM) from the aminoglycoside family was used.
# [10] = system: Proteus vulgaris (ATCC 13315); experiment: as above; type: cell-based; details: ATCC13315, 37° C., 20 to 48 hours, read-out: MIC
# Procedure: as §2
# [11] = system: Enterococcus faecalis (VRE, ATCC 51575); experiment: as above; type: cell-based; details: 37° C., 20 to 48 hours
# Procedure: as §2
# [12] = system: Escherichia coli (ATCC 10536); experiment: as above; type: cell-based; details: ATCC10536, 37° C., 20 to 48 hours, read-out: MIC
# Procedure: as §2
# [13] = system: Salmonella typhimurium (ATCC 13311); experiment: as above; type: cell-based; details: Salmonella enterica, 37° C., 20 to 48 hours, read-out: MIC
# Procedure: as §2
# [14] = system: Klebsiella pneumonia (ATCC 10031); experiment: as above; type: cell-based; details: Klebsiella pneumoniae, ATCC10031, 37° C., 20 to 48 hours, read-out: MIC
# Procedure: as §2
# [15] = system: Mycobacterium ranae (ATCC 110); experiment: as above; type: cell-based; details: ATCC110, 37° C., 20 to 48 hours, read-out: MIC
# Procedure: as §2
# [16] = system: Staphylococcus epidermidis (ATCC 12228); experiment: as above; type: cell-based; details: ATCC12228, 37° C., 20 to 48 hours, read-out: MIC
# Procedure: as §2
# [17] = system: Streptococcus pneumonia (ATCC 6301); experiment: as above; type: cell-based; details: Streptococcus pneumoniae, ATCC6301, 37° C., 20 to 48 hours
# Procedure: as §2
# [18] = system: Pseudomonas aeruginosa (ATCC 9027); experiment: as above; type: cell-based; details: ATCC9027, 37° C., 20 to 48 hours, read-out: MIC
# Procedure: as §2
# [19] = system: Escherichia coli (ATCC 25922); experiment: as above; type: cell-based; details: ATCC25922, 37° C., 20 to 48 hours, read-out: MIC
# Procedure: as §2
Compound,"MIC (H. pylori, ATCC 43504) [µg/mL]",MIC [3] [µg/mL],MIC [4] [µg/mL],MIC [5] [µg/mL],MIC [6] [µg/mL],MIC [7] [µg/mL],MIC [8] [µg/mL],MIC (H. pylori NCTC 11916) [µg/mL],MIC (H. pylori NCTC 11637) [µg/mL],MIC [1] [µg/mL],MIC [2] [µg/mL],also measured
"COc1ccc2[nH]c([S+]([O-])Cc3ncc(C)c(OC)c3C)nc2c1 (centres unmarked) [(a), 5-methoxy-2-(4-methoxy-3,5-dimethylpyridin-2-yl)methylsulfinyl-1H-benzimidazole]",,,,,,,,,,50,50,
"COc1ccc2[nH]c(SCc3ncc(C)c(OC)c3C)nc2c1 [(b), 5-methoxy-2-(4-methoxy-3,5-dimethylpyridin-2-yl)methylthio-1H-benzimidazole]",,,,,,,,,,12.5,12.5,
"Cc1c(OCC(F)(F)F)ccnc1C[S+]([O-])c1nc2ccccc2[nH]1 (centres unmarked) [(c), 2-[3-methyl-4-(2,2,2-trifluoroethoxy)pyridine-2-yl]methylsulfinyl-1H-benzimidazole]",,,,,,,,,,12.5,6.25,
"Cc1c(OCC(F)(F)F)ccnc1CSc1nc2ccccc2[nH]1 [(d), 2-[3-methyl-4-(2,2,2-trifluoroethoxy)pyridine-2-yl]methylthio-1H-benzimidazole]",,,,,,,,,,1.56,1.56,
"COCCCOc1ccnc(C[S+]([O-])c2nc3ccccc3[nH]2)c1C.[Na] (centres unmarked) [(e), 2-[4-(3-methoxypropoxy)-3-methylpyridin-2-yl]methylsulfinyl-1H-benzimidazole sodium salt]",,,,,,,,,,1.56,0.8,
"COCCCOc1ccnc(CSc2nc3ccccc3[nH]2)c1C [(f), 2-[4-(3-methoxypropoxy)-3-methylpyridin-2-yl]methylthio-1H-benzimidazole]",,,,,,,,,,1.56,0.8,
"Cc1c(OCCO)ccnc1CSc1nc2ccccc2[nH]1 [Comparative Compound 1, 2-[{4-(2-hydroxyethoxy)-3-methylpyridin-2-yl}methylthio]-1H-benzimidazole, reference compound]",10,,,,,,,,,,,
"Cc1c(OCCCO)ccnc1CSc1nc2ccccc2[nH]1 [Comparative Compound 2, 2-[{4-(3-hydroxypropoxy)-3-methylpyridin-2-yl}methylthio]-1H-benzimidazole, reference compound]",3,,,,,,,,,,,
"CN(C)[C@@H]1C(O)=C(C(N)=O)C(=O)[C@@]2(O)C(O)=C3C(=O)c4c(O)cccc4[C@@](C)(O)[C@H]3C[C@@H]12 [Control Drug 3 (Tetracycline), tetracycline, reference compound]",0.3,,,,,,,,,,,

# Now from value to molecule, other results behind:
"MIC (H. pylori, ATCC 43504) [µg/mL]",MIC [3] [µg/mL],MIC [4] [µg/mL],MIC [5] [µg/mL],MIC [6] [µg/mL],MIC [7] [µg/mL],MIC [8] [µg/mL],MIC (H. pylori NCTC 11916) [µg/mL],MIC (H. pylori NCTC 11637) [µg/mL],Compound,MIC [1] [µg/mL],MIC [2] [µg/mL],also measured
0.1,,,,,,,,,"CC1(C)S[C@@H]2[C@H](NC(=O)[C@H](N)c3ccccc3)C(=O)N2[C@H]1C(=O)O [Control Drug 1 (Ampicillin), ampicillin, reference compound]",,,
1,0.8,0.8,0.4,2.5,25,2.5,0.8,0.8,"CC1COc2c(N3CCN(C)CC3)c(F)cc3c(=O)c(C(=O)O)cn1c23 (centres unmarked) [Control Drug 4 (Ofloxacin), ofloxacin, reference compound]",,,
0.3,0.3,0.2,0.3,0.3,0.3,0.2,0.3,0.3,"Cc1c(OCCCCCO)ccnc1CSc1nc2ccccc2[nH]1 [Example 1, 2-[{4-(5-hydroxypentyloxy)-3-methylpyridin-2-yl}methylthio]-1H-benzimidazole]",,,MIC [9]: > 100 µg/mL; MIC [10]: > 100 µg/mL; MIC [11]: > 100 µg/mL; MIC [12]: > 100 µg/mL; MIC [13]: > 100 µg/mL; MIC [14]: > 100 µg/mL; MIC [15]: > 100 µg/mL; MIC [16]: > 100 µg/mL; MIC [17]: > 100 µg/mL; MIC [18]: > 100 µg/mL; MIC [19]: > 100 µg/mL
0.1,0.1,0.1,0.3,0.1,0.1,0.3,0.1,0.1,"Cc1c(OCCCCCCO)ccnc1CSc1nc2ccccc2[nH]1 [Example 2, 2-[{4-(6-hydroxyhexyloxy)-3-methylpyridin-2-yl}methylthio]-1H-benzimidazole]",,,MIC [9]: > 100 µg/mL; MIC [10]: > 100 µg/mL; MIC [11]: > 100 µg/mL; MIC [12]: > 100 µg/mL; MIC [13]: > 100 µg/mL; MIC [14]: > 100 µg/mL; MIC [15]: > 100 µg/mL; MIC [16]: > 100 µg/mL; MIC [17]: > 100 µg/mL; MIC [18]: > 100 µg/mL; MIC [19]: > 100 µg/mL
0.1,0.1,0.1,0.1,0.1,0.1,0.1,0.1,0.1,"Cc1c(OCCCCCCCO)ccnc1CSc1nc2ccccc2[nH]1 [Example 3, 2-[{4-(7-hydroxyheptyloxy)-3-methylpyridin-2-yl}methylthio]-1H-benzimidazole]",,,MIC [9]: > 100 µg/mL; MIC [10]: > 100 µg/mL; MIC [11]: > 100 µg/mL; MIC [12]: > 100 µg/mL; MIC [13]: > 100 µg/mL; MIC [14]: > 100 µg/mL; MIC [15]: > 100 µg/mL; MIC [16]: > 100 µg/mL; MIC [17]: > 100 µg/mL; MIC [18]: > 100 µg/mL; MIC [19]: > 100 µg/mL
,0.2,0.4,0.2,3.5,> 100,> 100,0.1,0.2,"CC[C@H]1OC(=O)[C@H](C)[C@@H](O[C@H]2C[C@@](C)(OC)[C@@H](O)[C@H](C)O2)[C@H](C)[C@@H](O[C@@H]2O[C@H](C)C[C@H](N(C)C)[C@H]2O)[C@](C)(O)C[C@@H](C)/C(=N\OCOCCOC)[C@H](C)[C@@H](O)[C@]1(C)O [RXM, roxithromycin, reference compound]",0.1,0.2,

# From patent publication US20090143438A1, “Novel Pyridine Derivative Having Anti-Helicobacter Pylori Activity” (Arigen Pharmaceuticals, Inc., priority 2006, published 2009)
